Laboratory results taken from patent US5935790A, “Method for detecting a predisposition to susceptibility to toxic effects of drugs and poisons” (Rutgers, The State University of New Jersey, priority 1997, dated 1999).
Read-outs that look alike come from different tables or passages of the source.

What was measured:
rat fibroblasts = details: lead nitrate in the growth medium; cited from earlier work
arylsulfatase A (ASA) = arylsulfatase A (ASA) (Homo sapiens, UniProt P15289); details: fibroblasts
Chain of arylsulfatase A (ASA) (P15289 19-507): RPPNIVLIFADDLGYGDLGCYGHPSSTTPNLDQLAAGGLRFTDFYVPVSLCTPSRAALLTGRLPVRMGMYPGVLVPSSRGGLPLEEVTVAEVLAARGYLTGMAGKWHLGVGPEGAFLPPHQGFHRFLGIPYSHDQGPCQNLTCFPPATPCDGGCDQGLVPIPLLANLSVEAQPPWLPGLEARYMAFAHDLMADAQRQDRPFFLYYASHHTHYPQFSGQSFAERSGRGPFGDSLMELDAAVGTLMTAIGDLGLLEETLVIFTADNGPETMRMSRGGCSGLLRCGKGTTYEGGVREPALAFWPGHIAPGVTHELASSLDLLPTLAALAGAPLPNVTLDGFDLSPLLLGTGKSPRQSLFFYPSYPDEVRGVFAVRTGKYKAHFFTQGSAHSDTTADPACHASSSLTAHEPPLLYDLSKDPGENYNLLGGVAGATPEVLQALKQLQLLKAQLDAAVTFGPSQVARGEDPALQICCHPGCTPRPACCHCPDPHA
Method: FIG. 2. The effect of lead acetate on intracellular ASA enzymic activity in cultured human fibroblasts. Fibroblasts were grown in vitro as monolayer cultures in the absence or presence of different concentrations of lead acetate as described in the text. The cells were dissolved in buffer containing detergent and the enzymic activity of ASA and other lysosomal enzymes and protein concentration were determined. The data are expressed relative to the control and the s.e.m. at each concentration of lead is indicated.
The potential effect of lead on cellular levels of ASA was examined in an in vitro system employing human fibroblasts. […] Fibroblast cultures were derived from punch biopsies and maintained in glutamine/penicillin/streptomycin/fetal bovine serum supplemented EMEM or in the same supplemented medium containing 0.5. 5.0. or 20 μM lead acetate. These cultures were split every three cell cycles for a total of 6-12 cell divisions. Fibroblasts in logarithmic growth were washed with PBS and dissolved in 1 mL of PBS containing 0.1% Triton X-100. This suspension was centriftiged for 5 min at 12,000 ×g and the supernatant was employed for determination of ASA and arylsulfatase B (ASB) activities using p-nitrocatechol sulfate as described by Baum et al. [Clin. Chim. Acta 4:453-455 (1959)] and β-galactosidase [Poretz et al., supra]. Each assay was performed in triplicate, and the complete experiment was repeated three times on different occasions for evaluating the effect of lead on cellular levels of ASA.

partially purified ASA = partially purified ASA (Homo sapiens, UniProt P15289)
Chain of partially purified ASA (P15289 19-507): as above
Method: FIG. 3. […] A preparation of partially purified human fibroblast ASA containing other lysosomal hydrolases was incubated for 1 hr at 4° C. in the presence of lead acetate as described in the text. ASA and other hydrolase enzymic activities were determined. The data are expressed relative to the control and the s.e.m at each concentration of lead is indicated.
(§1) The direct effect of lead on ASA activity was also studied. […] Human fibroblast ASA was enriched in a preparation of isolated lysosomal enzymes as described by Gorman and Poretz [J. Cell. Physiol. 131:158-164 (1987)]. Lead acetate in buffer was added to protein preparations containing approximately 2 units of ASA activity in a total volume of 2.0 ml and incubated at 4° C. A control lacking lead was also prepared in an identical fashion. Aliquots were removed at 30 min, 1 hr, 24 hr, and 48 hr and analyzed for ASA, β-galactosidase and β-hexosaminidaseactivities. Enzymic and protein analyses were performed in triplicate, and the complete experiment was repeated three times.

ASA = details: daily i.p. 100 mg/kg body weight, cited from earlier work
isolated lysosomes = details: cited from earlier work
β-hexosaminidase = details: every concentration of metal studied
Method: as §1

β-galactosidase = details: similar conditions as for ASA
Method: as §1

O=[N+]([O-])[O-].O=[N+]([O-])[O-].[Pb+2] [lead nitrate]
lysosomal membrane stability (rat fibroblasts): reduction in lysosomal membrane stability

CC(=O)[O-].CC(=O)[O-].[Pb+2] [lead acetate]
amount of ASA relative to control cells grown without lead (arylsulfatase A (ASA)): ≥ 65%
reduction of cellular ASA activity (arylsulfatase A (ASA)): 32-36%
reduction of cellular ASA specific activity (arylsulfatase A (ASA); 0.5 µM): 14%
decrease of ASA lysosomal enzyme activity vs cells in normal medium (arylsulfatase A (ASA); 20 µM): 32-36%
loss of ASA activity (partially purified ASA; 200 μM lead acetate, 4° C., p=0.045): 67%
time of maximum effect on ASA activity (partially purified ASA; 4° C., unchanged up to 48 hr): 1 h
effect on partially purified ASA (partially purified ASA; 100-200 μM lead acetate): precipitation of the enzyme and loss of enzymic activity
reduction in ASA activity vs control animals (ASA; rat kidney): 20%
reduction in ASA activity vs control animals (ASA; rat liver): 55%
decrease in stability of the lysosome (isolated lysosomes): greater than 200 fold
facilitated calcium transport by isolated lysosomes (isolated lysosomes; lead as low as 300 μM, concentration dependent): markedly increased
effect on β-hexosaminidase activity (β-hexosaminidase): closely paralleled that for ASA activity
effect on β-galactosidase activity (β-galactosidase): no reduction
